In brackets after ≈: the same amount, converted by molar mass.
Columns and labels:
[1] = tested on: S.pyogenes CN 10; assay: Minimum Inhibitory Concentration (MIC), agar dilution; assay type: cell-based; details: 5% v/v horse blood agar, two-fold dilutions, read after 24 hours; unit assumed
Protocol: (§1) The following Table gives Minimum Inhibitory Concentration (MIC) values for some of the compounds of the invention against S.pyogenes CN 10 and E.coli NCTC 10418. The E. coli was grown in tryptone soya broth and the S. pyogenes was grown in Todd Hewitt broth. The microorganisms were grown for 24hours and lul samples were then inoculated on to agar plates (comprising 5% v/v live horse blood agar) to which had been added the compounds of the invention at a series of two-fold dilutions.

[2] = tested on: E.coli NCTC 10418; assay: as above; assay type: cell-based; details: 5% v/v horse blood agar, two-fold dilutions, read after 24 hours; unit assumed
Protocol: as §1

MIC S. pyogenes CN 10 [1] [µg/mL]	MIC E. coli NCTC 10418 [2] [µg/mL]	Structure (SMILES)
< 0.06	2 (≈ 6.11 µM)	C/C=C(\C)[C@@H](N)C(=O)N[C@@H]1C(=O)N2[C@@H]1SC(C)(C)[C@@H]2C(=O)O [Example 10 (D-stereoisomer), 6β-(D-2-amino-3-methylpent-3(E)-enamido)penicillanic acid]
< 0.06	4 (≈ 12.2 µM)	CC/C=C/[C@@H](N)C(=O)N[C@@H]1C(=O)N2[C@@H]1SC(C)(C)[C@@H]2C(=O)O [Example 13 (D-stereoisomer), 6p-(D-2-aminohex-3(E)-enamido)penicillanic acid]
0.06 (≈ 0.177 µM)	2 (≈ 5.89 µM)	C=C/C=C(\C)[C@@H](N)C(=O)N[C@@H]1C(=O)N2[C@@H]1SC(C)(C)[C@@H]2C(=O)O [Example 12 (D-stereoisomer), 6β-(D-2-amino-3-methylhex-3(E), 5-dienamido)penicillanic acid]
< 0.06	16 (≈ 39 µM)	CC1(C)S[C@@H]2[C@H](NC(=O)C(N)/C=C/c3ccc(Cl)cc3)C(=O)N2[C@H]1C(=O)O (stereo partly drawn) [Example 16, 6β-[D,L-2--Amino-4-(4-chlorophenyl)but-3(E)-enamido]penicillanic acid]
0.06 (≈ 0.144 µM)	32 (≈ 76.9 µM)	CC1(C)S[C@@H]2[C@H](NC(=O)C(N)/C(=C\Cl)c3cccs3)C(=O)N2[C@H]1C(=O)O (stereo partly drawn) [Example 20, 6B-(D,L-2-Amino-4-chloro-3-thien-2-ylbut-3(E)-enamido)penicillanic acid]
< 0.03	2 (≈ 6.11 µM)	C=C(CC)[C@@H](N)C(=O)N[C@@H]1C(=O)N2[C@@H]1SC(C)(C)[C@@H]2C(=O)O [Example 9 (D-stereoisomer), 6,β-(D-2-amino-3-ethylbut-3-enamido)penicillanic acid]
< 0.06	16 (≈ 41.9 µM)	CC1(C)S[C@@H]2[C@H](NC(=O)[C@H](N)/C=C/C3CCCCC3)C(=O)N2[C@H]1C(=O)O [Example 14 (D-stereoisomer), 6β-(D-2-amino-4-cyclohexylbut-3(E)-enamido)penicillanic acid]
< 0.03	16 (≈ 38.5 µM)	CC1(C)S[C@@H]2[C@H](NC(=O)C(N)/C(=C/Cl)c3cccs3)C(=O)N2[C@H]1C(=O)O (stereo partly drawn) [Example 19, 6β-(D,L-2-Amino-4-chloro-3-thien-2-ylbut-3(Z)-enamido)penicillanic acid]
< 0.06	16 (≈ 42.6 µM)	CC1(C)S[C@@H]2[C@H](NC(=O)[C@H](N)/C=C/c3ccccc3)C(=O)N2[C@H]1C(=O)O [Example 15 (D-stereoisomer), 6p-(D-2-amino-4-phenylbut-3(E)enamido)penicillanic acid]

Structure (SMILES)	MIC S. pyogenes CN 10 [1] [µg/mL]	MIC E. coli NCTC 10418 [2] [µg/mL]
CC(=O)OC/C=C/[C@@H](N)C(=O)N[C@@H]1C(=O)N2[C@@H]1SC(C)(C)[C@@H]2C(=O)O [Example 23, 6β-[5-Acetoxy-D-2-aminopent-3(E)-enamido] penicillanic acid]	0.12 (≈ 0.323 µM)	32 (≈ 86.2 µM)
C=C(C)[C@@H](N)C(=O)N[C@@H]1C(=O)N2C(C(=O)O)=C(C)CS[C@H]12 [Example 8, 7,β-[D-2-Amino-3-methylbut-3-enamido]-3-desacetoxy cephalosporanic acid]	2 (≈ 6.42 µM)	–
